In patent US9487490B2, “3-cyclohexenyl and cyclohexyl substituted indole and indazole compounds as RORgammaT inhibitors and uses thereof” (Merck Sharp & Dohme Corp., priority 2012, dated 2016):

What follows are compounds tested against human RORgammaT-Ligand Binding Domain (LBD) (Homo sapiens (Human), UniProt P51449) (assay: RORγ-Ligand Binding Domain TR-FRET assay (co-activator peptide SRC1_2 recruitment)). Conditions: Fret IC50 (nM), HIS-tagged RORγ-LBD 3 nM, biotinylated SRC1 LXXLL peptide 100 nM, incubated overnight at 4° C., 665 nm/615 nm signal quotient.
Chain of human RORgammaT-Ligand Binding Domain (LBD) (P51449 269-508): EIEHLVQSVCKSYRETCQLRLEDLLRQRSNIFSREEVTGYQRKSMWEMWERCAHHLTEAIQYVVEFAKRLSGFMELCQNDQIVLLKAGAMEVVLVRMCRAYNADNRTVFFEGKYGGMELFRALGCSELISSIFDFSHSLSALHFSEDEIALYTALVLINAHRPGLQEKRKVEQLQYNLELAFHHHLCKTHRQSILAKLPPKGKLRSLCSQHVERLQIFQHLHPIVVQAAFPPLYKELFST
Assay type: biochemical
Text: Activation of RORgammaT activity can be measured using, e.g., biochemical TR-FRET assay. In such an assay, interaction of cofactor-derived peptides with human RORgammaT-Ligand Binding Domain (LBD) can be measured.
To identify novel antagonists of RORgammaT, an assay was developed which employs the interaction of RORgammaT with its co-activator peptide SRC1_2. […] The RORγ-Ligand Binding Domain TR-FRET Assay was run according to the following protocol.
HIS-tagged RORγ-LBD protein was expressed in SF9 cells using a baculovirus expression system. The RORγ-LBD protein was purified by glutathione sepharose chromatography. Separately, SF9 cells not expressing any recombinant protein were lysed and the lysate was added to the purified RORγ-LBD at 0.25 μl lysate (from 10,000 SF9 cells)/nM purified protein. The mixture was then diluted in assay buffer (50 mM Tris pH 7.0, 50 mM KCl, 1 mM EDTA, 0.1 mM DTT) to obtain RORγ-LBD final concentration of 3 nM in 384-well assay plate.
Compounds to be tested were injected to the assay plate using Acoustic Droplet Ejection technology by Echo 550 liquid handler (Labcyte, Calif.).

| Structure (SMILES) | IC50 [nM] |
| --- | --- |
| CC1(C)C=C(c2nn(C(=O)c3c(Cl)cccc3C(F)(F)F)c3cccc(F)c23)CCC1C(=O)O (racemic) [Example 10A, (R and S)-4-(1-(2-chloro-6-(trifluoromethyl)benzoyl)-4-fluoro-1H-indazol-3-yl)-2,2-dimethylcyclohex-3-enecarboxylic acid] | 343 |
| CC1(C)CC(c2nn(C(=O)c3c(Cl)cccc3C(F)(F)F)c3cccc(F)c23)=CCC1C(=O)O (racemic) [Example 10B, (R and S) 4-(1-(2-chloro-6-(trifluoromethyl)benzoyl)-4-fluoro-1H-indazol-3-yl)-6,6-dimethylcyclohex-3-enecarboxylic acid] | 96 |

Same assay, conditions: HIS-tagged RORγ-LBD 3 nM, biotinylated SRC1 LXXLL peptide 100 nM, incubated overnight at 4° C., 665 nm/615 nm signal quotient; read-out: Fret IC50

| IC50 [nM] | Structure (SMILES) |
| --- | --- |
| 54 | CC1CC(C(=O)O)CC=C1c1nn(C(=O)c2c(Cl)cccc2C(F)(F)F)c2cccc(F)c12 (racemic) [Example 12A, 4-(1-(2-chloro-6-(trifluoromethyl)benzoyl)-4-fluoro-1H-indazol-3-yl)-5-methylcyclohex-3-enecarboxylic acid] |
| 2 | COC1CN(C(=O)c2ccc3c(C4=CCC(C(=O)O)CC4)nn(C(=O)c4c(Cl)cccc4C4CC4)c3c2)C1 (single isomer, unassigned) [Example 2A, (R or S)-4-(1-(2-chloro-6-cyclopropylbenzoyl)-6-(3-methoxyazetidine-1-carbonyl)-1H-indazol-3-yl)cyclohex-3-enecarboxylic acid] |
| 2 | COC1CN(C(=O)c2ccc3c(C4=CCC(C(=O)O)CC4)nn(C(=O)c4c(Cl)cccc4C4CC4)c3c2)C1 (single isomer, unassigned) [Example 2B, (S or R)-4-(1-(2-chloro-6-cyclopropylbenzoyl)-6-(3-methoxyazetidine-1-carbonyl)-1H-indazol-3-yl)cyclohex-3-enecarboxylic acid] |
| 4 | COC1CN(C(=O)c2ccc3c(C4=CC[C@](C)(C(=O)O)CC4)nn(C(=O)c4c(Cl)cccc4C4CC4)c3c2)C1 (single isomer, unassigned) [Example 2C, (R or S)-4-(1-(2-chloro-6-cyclopropylbenzoyl)-6-(3-methoxyazetidine-1-carbonyl)-1H-indazol-3-yl)-1-methylcyclohex-3-enecarboxylic acid] |
| 5 | COC1CN(C(=O)c2ccc3c(C4=CC[C@@](C)(C(=O)O)CC4)nn(C(=O)c4c(Cl)cccc4C4CC4)c3c2)C1 (single isomer, unassigned) [Example 2D, (S or R)-4-(1-(2-chloro-6-cyclopropylbenzoyl)-6-(3-methoxyazetidine-1-carbonyl)-1H-indazol-3-yl)-1-methylcyclohex-3-enecarboxylic acid] |
| 5 | O=C(O)C1CC=C(c2nn(C(=O)c3c(Cl)cccc3C(F)(F)F)c3cc(C(=O)N4CC(F)(F)C4)ccc23)CC1 (stereo not drawn) [Example 4A, 4-(1-(2-chloro-6-(trifluoromethyl)benzoyl)-6-(3,3-difluoroazetidine-1-carbonyl)-1H-indazol-3-yl)cyclohex-3-enecarboxylic acid] |
| 143 | O=C(NC1CC1)c1ccc2c(C3=CCC(C(=O)O)CC3)nn(C(=O)c3c(Cl)cccc3C(F)(F)F)c2c1 (stereo not drawn) [Example 4B, 4-(1-(2-chloro-6-(trifluoromethyl)benzoyl)-6-(cyclopropylcarbamoyl)-1H-indazol-3-yl)cyclohex-3-enecarboxylic acid] |
| 9 | CN(C(=O)c1ccc2c(C3=CCC(C(=O)O)CC3)nn(C(=O)c3c(Cl)cccc3C(F)(F)F)c2c1)C1CC1 (stereo not drawn) [Example 4C, 4-(1-(2-chloro-6-(trifluoromethyl)benzoyl)-6-(cyclopropyl(methyl)carbamoyl)-1H-indazol-3-yl)cyclohex-3-enecarboxylic acid] |
| 177 | O=C(O)C1CC=C(c2nn(C(=O)c3c(Cl)cccc3C(F)(F)F)c3cc(C(=O)N4CCC4)ccc23)CC1 (stereo not drawn) [Example 4D, 4-(6-(azetidine-1-carbonyl)-1-(2-chloro-6-(trifluoromethyl)benzoyl)-1H-indazol-3-yl)cyclohex-3-enecarboxylic acid] |
| 2 | COC1CN(C(=O)c2ccc3c(C4=CCC(C(=O)O)CC4)nn(C(=O)c4c(Cl)cccc4C(F)(F)F)c3c2)C1 (stereo not drawn) [Example 4E, 4-(1-(2-chloro-6-(trifluoromethyl)benzoyl)-6-(3-methoxyazetidine-1-carbonyl)-1H-indazol-3-yl)cyclohex-3-enecarboxylic acid] |
| 30 | O=C(O)C1CC=C(c2nn(C(=O)c3c(Cl)cccc3C(F)(F)F)c3cc(C(=O)N4CCCC4)ccc23)CC1 (stereo not drawn) [Example 4F, 4-(1-(2-chloro-6-(trifluoromethyl)benzoyl)-6-(pyrrolidine-1-carbonyl)-1H-indazol-3-yl)cyclohex-3-enecarboxylic acid] |
| 6 | C[C@H]1CCCN1C(=O)c1ccc2c(C3=CCC(C(=O)O)CC3)nn(C(=O)c3c(Cl)cccc3C(F)(F)F)c2c1 (stereo partly drawn) [Example 4G, 4-(1-(2-chloro-6-(trifluoromethyl)benzoyl)-6-((S)-2-methylpyrrolidine-1-carbonyl)-1H-indazol-3-yl)cyclohex-3-enecarboxylic acid] |
| 115 | C[C@@H]1CCCN1C(=O)c1ccc2c(C3=CCC(C(=O)O)CC3)nn(C(=O)c3c(Cl)cccc3C(F)(F)F)c2c1 (stereo partly drawn) [Example 4H, 4-(1-(2-chloro-6-(trifluoromethyl)benzoyl)-6-((R)-2-methylpyrrolidine-1-carbonyl)-1H-indazol-3-yl)cyclohex-3-enecarboxylic acid] |
| 24 | CC1CN(C(=O)c2ccc3c(C4=CCC(C(=O)O)CC4)nn(C(=O)c4c(Cl)cccc4C(F)(F)F)c3c2)CCO1 (stereo not drawn) [Example 4J, 4-(1-(2-chloro-6-(trifluoromethyl)benzoyl)-6-(2-methylmorpholine-4-carbonyl)-1H-indazol-3-yl)cyclohex-3-enecarboxylic acid] |
| 94 | CN(C(=O)c1ccc2c(C3=CCC(C(=O)O)CC3)nn(C(=O)c3c(Cl)cccc3C(F)(F)F)c2c1)C1CCCCC1 (stereo not drawn) [Example 4K, 4-(1-(2-chloro-6-(trifluoromethyl)benzoyl)-6-(cyclohexyl(methyl)carbamoyl)-1H-indazol-3-yl)cyclohex-3-enecarboxylic acid] |
| 36 | O=C(O)C1CC=C(c2nn(C(=O)c3c(Cl)cccc3C(F)(F)F)c3cc(C(=O)N4CCOCC4)ccc23)CC1 (stereo not drawn) [Example 4L, 4-(1-(2-chloro-6-(trifluoromethyl)benzoyl)-6-(morpholine-4-carbonyl)-1H-indazol-3-yl)cyclohex-3-enecarboxylic acid] |

The next lines start with the compound.

| Structure (SMILES) | IC50 [nM] |
| --- | --- |
| CN(C)C(=O)c1ccc2c(C3=CCC(C(=O)O)CC3)nn(C(=O)c3c(Cl)cccc3C(F)(F)F)c2c1 (stereo not drawn) [Example 1A, 4-(1-(2-chloro-6-(trifluoromethyl)benzoyl)-6-(dimethylcarbamoyl)-1H-indazol-3-yl)cyclohex-3-enecarboxylic acid] | 18 |
| O=C(NCCO)c1ccc2c(C3=CCC(C(=O)O)CC3)nn(C(=O)c3c(Cl)cccc3C(F)(F)F)c2c1 (stereo not drawn) [Example 1D, 4-(1-(2-chloro-6-(trifluoromethyl)benzoyl)-6-(2-hydroxyethylcarbamoyl)-1H-indazol-3-yl)cyclohex-3-enecarboxylic acid] | 774 |
| CC1(C(=O)O)CC=C(c2nn(C(=O)c3c(Cl)cccc3C(F)(F)F)c3cccnc23)CC1 (stereo not drawn) [Example 1F, 4-(1-(2-chloro-6-(trifluoromethyl)benzoyl)-1H-pyrazolo[4,3-b]pyridin-3-yl)-1-methylcyclohex-3-enecarboxylic acid] | 170 |
| CC1C=C(c2nn(C(=O)c3c(Cl)cccc3C(F)(F)F)c3cccnc23)CCC1C(=O)O (stereo not drawn) [Example 1G, 4-(1-(2-chloro-6-(trifluoromethyl)benzoyl)-1H-pyrazolo[4,3-b]pyridin-3-yl)-2-methylcyclohex-3-enecarboxylic acid] | 182 |
| O=C(O)C1CC=C(c2nn(C(=O)c3c(Cl)cccc3C(F)(F)F)c3ccccc23)CC1 (stereo not drawn) [Example 1H, 4-(1-(2-chloro-6-(trifluoromethyl)benzoyl)-1H-indazol-3-yl)cyclohex-3-enecarboxylic acid] | 20 |
| CC1(C(=O)O)CC=C(c2nn(C(=O)c3c(Cl)cccc3C(F)(F)F)c3cccc(Cl)c23)CC1 (stereo not drawn) [Example 1I, 4-(4-chloro-1-(2-chloro-6-(trifluoromethyl)benzoyl)-1H-indazol-3-yl)-1-methylcyclohex-3-enecarboxylic acid] | 14 |
| CC1(C(=O)O)CC=C(c2nn(C(=O)c3c(Cl)cccc3C3CC3)c3cccc(F)c23)CC1 (stereo not drawn) [Example 1J, 4-(1-(2-chloro-6-cyclopropylbenzoyl)-4-fluoro-1H-indazol-3-yl)-1-methylcyclohex-3-enecarboxylic acid] | 7 |
| Cc1cccc(Cl)c1C(=O)n1nc(C2=CCC(C(=O)O)CC2)c2c(F)cccc21 (stereo not drawn) [Example 1K, 4-(1-(2-chloro-6-methylbenzoyl)-4-fluoro-1H-indazol-3-yl)cyclo-hex-3-enecarboxylic acid] | 31 |
| Cc1cccc(Cl)c1C(=O)n1nc(C2=CCC(C(=O)O)CC2)c2ncccc21 (stereo not drawn) [Example 1L, 4-(1-(2-chloro-6-methylbenzoyl)-1H-pyrazolo[4,3-b]pyridine-3-yl)cyclohex-3-enecarboxylic acid] | 123 |
